Patent US20030138533A1, “Food and beverage perservative” (Nutraceutical Clinical Laboratories International, Inc., priority 2002, published 2003)

Tested on: mold
Assay: Mold growth in white pan bread during storage (shelf-life test)
Settings: white pan bread mix; test preservative about 3.5% of total mix weight, control 0.27% calcium propionate; same packaging and storage; 90 day test period
Method: The test sample preservative composition as shown in Table 1 was added to white pan bread mix in the final minute of mixing after yeast and salt had been blended into the mixture. The preservative composition comprised about 3.5% of the total weight of the mix. A control sample containing 0.27% calcium propionate was added to another identical sample of white pan bread mix. The control sample molded in 12 days. The test sample remained free of any sign of mold growth during a 90 day test period. Both the test sample and the control sample were packaged and stored in the same conditions throughout the test period.

SMILES: CCC(=O)[O-].CCC(=O)[O-].[Ca+2] [calcium propionate]
- time without mold growth (time until the bread sample molded): 12 days
